Source: ChEMBL document CHEMBL3621169, “Synthesis of tetrazole compounds as a novel type of potential antimicrobial agents and their synergistic effects with clinical drugs and interactions with calf thymus DNA” (Medchemcomm, 2015)
Values after ≈ are worked out from the molar mass of the structure shown.

Legend:
[1] = system: Micrococcus luteus; assay: Antibacterial activity against Micrococcus luteus ATCC 4698 after 24 hrs by micro broth dilution method; format: functional; settings: ATCC 4698, 24 h
[2] = system: Staphylococcus aureus; assay: Antibacterial activity against Staphylococcus aureus ATCC 25923 after 24 hrs by micro broth dilution method; format: functional; settings: ATCC 25923, 24 h
[3] = system: Escherichia coli; assay: Antibacterial activity against Escherichia coli DH52 after 24 hrs by micro broth dilution method; format: functional; settings: DH52, 24 h
[4] = system: Cyberlindnera jadinii; assay: Antifungal activity against Candida utilis ATCC 9950 after 24 hrs by micro broth dilution method; format: functional; settings: Williopsis jadinii, ATCC 9950, 24 h
[5] = system: Aspergillus flavus; assay: Antifungal activity against Aspergillus flavus after 24 hrs by micro broth dilution method; format: functional
[6] = system: Candida albicans; assay: Antifungal activity against Candida albicans ATCC 90029 after 24 hrs by micro broth dilution method; format: functional; settings: ATCC 90029, 24 h
[7] = system: Pseudomonas aeruginosa; assay: Antibacterial activity against Pseudomonas aeruginosa ATCC 27853 after 24 hrs by micro broth dilution method; format: functional; settings: ATCC 27853, 24 h
[8] = system: Bacillus sp.; assay: Antibacterial activity against Bacillus proteus ATCC 13315 after 24 hrs by micro broth dilution method; format: functional; settings: Bacillus sp. (in: firmicutes), ATCC 13315, 24 h
[9] = system: Bacillus spizizenii; assay: Antibacterial activity against Bacillus subtilis ATCC 6633 after 24 hrs by micro broth dilution method; format: functional; settings: ATCC 6633, 24 h
[10] = system: Shigella dysenteriae; assay: Antibacterial activity against Shigella dysenteriae ATCC 51252 after 24 hrs by micro broth dilution method; format: functional; settings: ATCC 51252, 24 h
[11] = system: Staphylococcus aureus; assay: Antibacterial activity against methicillin-resistant Staphylococcus aureus N315 after 24 hrs by micro broth dilution method; format: functional; settings: N315, 24 h
[12] = system: Candida; assay: Antifungal activity against Candida mycoderma after 24 hrs by micro broth dilution method; format: functional
[13] = Ionization constant, pKa of the compound by UV spectroscopy; format: physicochemical
[14] = n-octanol/water partition coefficient, log P of the compound at 25 deg C after 24 hrs by saturation shake flask based UV spectroscopy; format: physicochemical

SMILES	MIC [1] [µg/mL]	MIC [2] [µg/mL]	MIC [3] [µg/mL]	MIC [4] [µg/mL]	MIC [5] [µg/mL]	MIC [6] [µg/mL]	MIC [7] [µg/mL]	MIC [8] [µg/mL]	MIC [9] [µg/mL]	MIC [10] [µg/mL]	MIC [11] [µg/mL]	MIC [12] [µg/mL]	pKa [13]	logP at 24 h [14]
CCCCCCCCCCN(Cc1nnn[nH]1)c1ccccc1	32 (≈ 101 µM)	64 (≈ 203 µM)	32 (≈ 101 µM)	16 (≈ 50.7 µM)	32 (≈ 101 µM)	32 (≈ 101 µM)	128 (≈ 406 µM)	64 (≈ 203 µM)	32 (≈ 101 µM)	64 (≈ 203 µM)	32 (≈ 101 µM)	32 (≈ 101 µM)	4.87	–
Fc1ccccc1CN(Cc1nnn[nH]1)c1ccccc1	64 (≈ 226 µM)	64 (≈ 226 µM)	64 (≈ 226 µM)	32 (≈ 113 µM)	64 (≈ 226 µM)	32 (≈ 113 µM)	64 (≈ 226 µM)	64 (≈ 226 µM)	32 (≈ 113 µM)	128 (≈ 452 µM)	64 (≈ 226 µM)	16 (≈ 56.5 µM)	4.22	1.28
CCCCCCN(Cc1nnn[nH]1)c1ccccc1	128 (≈ 494 µM)	128 (≈ 494 µM)	128 (≈ 494 µM)	64 (≈ 247 µM)	64 (≈ 247 µM)	64 (≈ 247 µM)	128 (≈ 494 µM)	128 (≈ 494 µM)	128 (≈ 494 µM)	128 (≈ 494 µM)	256 (≈ 987 µM)	64 (≈ 247 µM)	4.78	2.18
COc1ccc(N(Cc2nnn[nH]2)Cc2ccc(F)cc2F)cc1	64 (≈ 193 µM)	64 (≈ 193 µM)	64 (≈ 193 µM)	16 (≈ 48.3 µM)	32 (≈ 96.6 µM)	32 (≈ 96.6 µM)	64 (≈ 193 µM)	64 (≈ 193 µM)	64 (≈ 193 µM)	64 (≈ 193 µM)	64 (≈ 193 µM)	16 (≈ 48.3 µM)	4.31	1.37
Fc1cccc(CN(Cc2nnn[nH]2)c2ccccc2)c1	64 (≈ 226 µM)	64 (≈ 226 µM)	32 (≈ 113 µM)	16 (≈ 56.5 µM)	32 (≈ 113 µM)	32 (≈ 113 µM)	64 (≈ 226 µM)	64 (≈ 226 µM)	32 (≈ 113 µM)	32 (≈ 113 µM)	64 (≈ 226 µM)	32 (≈ 113 µM)	4.19	1.29
Clc1ccc(CN(Cc2nnn[nH]2)c2ccccc2)c(Cl)c1	64 (≈ 191 µM)	32 (≈ 95.7 µM)	16 (≈ 47.9 µM)	8 (≈ 23.9 µM)	16 (≈ 47.9 µM)	16 (≈ 47.9 µM)	32 (≈ 95.7 µM)	32 (≈ 95.7 µM)	32 (≈ 95.7 µM)	64 (≈ 191 µM)	64 (≈ 191 µM)	8 (≈ 23.9 µM)	4.54	1.67
Cc1ccc(N(Cc2nnn[nH]2)Cc2ccc(F)cc2F)cc1	64 (≈ 203 µM)	64 (≈ 203 µM)	64 (≈ 203 µM)	32 (≈ 101 µM)	32 (≈ 101 µM)	32 (≈ 101 µM)	32 (≈ 101 µM)	64 (≈ 203 µM)	64 (≈ 203 µM)	64 (≈ 203 µM)	64 (≈ 203 µM)	16 (≈ 50.7 µM)	4.23	1.42
Fc1ccc(CN(Cc2nnn[nH]2)c2ccccc2)c(F)c1	64 (≈ 212 µM)	64 (≈ 212 µM)	64 (≈ 212 µM)	16 (≈ 53.1 µM)	32 (≈ 106 µM)	64 (≈ 212 µM)	32 (≈ 106 µM)	64 (≈ 212 µM)	64 (≈ 212 µM)	64 (≈ 212 µM)	32 (≈ 106 µM)	16 (≈ 53.1 µM)	4.13	1.36
Clc1ccc(CN(Cc2nnn[nH]2)c2ccccc2)cc1Cl	128 (≈ 383 µM)	128 (≈ 383 µM)	64 (≈ 191 µM)	32 (≈ 95.7 µM)	32 (≈ 95.7 µM)	64 (≈ 191 µM)	64 (≈ 191 µM)	128 (≈ 383 µM)	64 (≈ 191 µM)	64 (≈ 191 µM)	128 (≈ 383 µM)	16 (≈ 47.9 µM)	4.49	1.63
CCCCCCCCCCCCN(Cc1nnn[nH]1)c1ccccc1	128 (≈ 373 µM)	128 (≈ 373 µM)	128 (≈ 373 µM)	64 (≈ 186 µM)	32 (≈ 93.2 µM)	128 (≈ 373 µM)	256 (≈ 745 µM)	256 (≈ 745 µM)	64 (≈ 186 µM)	256 (≈ 745 µM)	128 (≈ 373 µM)	64 (≈ 186 µM)	4.92	–
Cc1ccc(N(CC#N)Cc2ccc(F)cc2F)cc1	128 (≈ 470 µM)	128 (≈ 470 µM)	128 (≈ 470 µM)	128 (≈ 470 µM)	64 (≈ 235 µM)	64 (≈ 235 µM)	256 (≈ 940 µM)	128 (≈ 470 µM)	256 (≈ 940 µM)	128 (≈ 470 µM)	256 (≈ 940 µM)	128 (≈ 470 µM)	–	–
CCCCCCCCCCCCN(CC#N)c1ccccc1	128 (≈ 426 µM)	256 (≈ 852 µM)	256 (≈ 852 µM)	256 (≈ 852 µM)	128 (≈ 426 µM)	256 (≈ 852 µM)	512 (≈ 1700 µM)	512 (≈ 1700 µM)	256 (≈ 852 µM)	512 (≈ 1700 µM)	512 (≈ 1700 µM)	256 (≈ 852 µM)	–	–
Cc1ccc(N(Cc2nnn[nH]2)Cc2ccc(Cl)cc2Cl)cc1	32 (≈ 91.9 µM)	32 (≈ 91.9 µM)	16 (≈ 45.9 µM)	16 (≈ 45.9 µM)	16 (≈ 45.9 µM)	16 (≈ 45.9 µM)	32 (≈ 91.9 µM)	32 (≈ 91.9 µM)	64 (≈ 184 µM)	32 (≈ 91.9 µM)	16 (≈ 45.9 µM)	8 (≈ 23 µM)	4.26	1.99
N#CCN(Cc1ccccc1F)c1ccccc1	256 (≈ 1070 µM)	128 (≈ 533 µM)	128 (≈ 533 µM)	128 (≈ 533 µM)	128 (≈ 533 µM)	128 (≈ 533 µM)	128 (≈ 533 µM)	512 (≈ 2130 µM)	256 (≈ 1070 µM)	512 (≈ 2130 µM)	128 (≈ 533 µM)	128 (≈ 533 µM)	–	–
N#CCN(Cc1ccc(Cl)c(Cl)c1)c1ccccc1	256 (≈ 879 µM)	256 (≈ 879 µM)	256 (≈ 879 µM)	256 (≈ 879 µM)	256 (≈ 879 µM)	64 (≈ 220 µM)	256 (≈ 879 µM)	256 (≈ 879 µM)	128 (≈ 440 µM)	128 (≈ 440 µM)	256 (≈ 879 µM)	128 (≈ 440 µM)	–	–
CCCCCCCCN(Cc1nnn[nH]1)c1ccccc1	64 (≈ 223 µM)	128 (≈ 445 µM)	64 (≈ 223 µM)	128 (≈ 445 µM)	128 (≈ 445 µM)	64 (≈ 223 µM)	256 (≈ 891 µM)	128 (≈ 445 µM)	128 (≈ 445 µM)	128 (≈ 445 µM)	128 (≈ 445 µM)	32 (≈ 111 µM)	4.83	2.24
N#CCN(Cc1ccc(Cl)cc1Cl)c1ccccc1	256 (≈ 879 µM)	256 (≈ 879 µM)	128 (≈ 440 µM)	128 (≈ 440 µM)	256 (≈ 879 µM)	128 (≈ 440 µM)	256 (≈ 879 µM)	256 (≈ 879 µM)	128 (≈ 440 µM)	256 (≈ 879 µM)	256 (≈ 879 µM)	64 (≈ 220 µM)	–	–
COc1ccc(N(Cc2nnn[nH]2)Cc2ccc(Cl)cc2Cl)cc1	32 (≈ 87.9 µM)	32 (≈ 87.9 µM)	32 (≈ 87.9 µM)	8 (≈ 22 µM)	16 (≈ 43.9 µM)	16 (≈ 43.9 µM)	32 (≈ 87.9 µM)	32 (≈ 87.9 µM)	32 (≈ 87.9 µM)	32 (≈ 87.9 µM)	64 (≈ 176 µM)	8 (≈ 22 µM)	4.29	1.58
CCCCCCCCN(CC#N)c1ccccc1	256 (≈ 1050 µM)	256 (≈ 1050 µM)	128 (≈ 524 µM)	256 (≈ 1050 µM)	256 (≈ 1050 µM)	256 (≈ 1050 µM)	512 (≈ 2100 µM)	256 (≈ 1050 µM)	256 (≈ 1050 µM)	512 (≈ 2100 µM)	256 (≈ 1050 µM)	64 (≈ 262 µM)	–	–
Clc1ccc(CN(Cc2nnn[nH]2)c2ccccc2)cc1	64 (≈ 214 µM)	64 (≈ 214 µM)	32 (≈ 107 µM)	32 (≈ 107 µM)	32 (≈ 107 µM)	16 (≈ 53.4 µM)	64 (≈ 214 µM)	32 (≈ 107 µM)	32 (≈ 107 µM)	64 (≈ 214 µM)	128 (≈ 427 µM)	16 (≈ 53.4 µM)	4.38	1.39
Fc1ccc(CN(Cc2nnn[nH]2)c2ccccc2)cc1	256 (≈ 904 µM)	64 (≈ 226 µM)	64 (≈ 226 µM)	16 (≈ 56.5 µM)	32 (≈ 113 µM)	32 (≈ 113 µM)	64 (≈ 226 µM)	128 (≈ 452 µM)	64 (≈ 226 µM)	64 (≈ 226 µM)	64 (≈ 226 µM)	16 (≈ 56.5 µM)	4.2	1.26
